From paper PMC8262356, “SLC26A6-selective inhibitor identified in a small-molecule screen blocks fluid absorption in small intestine” (JCI Insight, 2021)
Several values for one entry are separate records, joined by “and”; a condition that tells them apart may be missing. Equal values may be shown once.

What was measured:
[1] = molecular target: T1, PAT1 (murine slc26a6) (Mus musculus, UniProt Q8CIW6); assay: PAT1-mediated Cl-/I- exchange, YFP fluorescence quenching in FRT cells; type: cell-based
T1 construct: host or cells: Fischer rat thyroid (FRT) cells, lentiviral transduction (pLVX-IRES-mCherry-slc26a6), clonal line FRT-YFP-slc26a6
T1 sequence (Q8CIW6 24-758 limits assumed): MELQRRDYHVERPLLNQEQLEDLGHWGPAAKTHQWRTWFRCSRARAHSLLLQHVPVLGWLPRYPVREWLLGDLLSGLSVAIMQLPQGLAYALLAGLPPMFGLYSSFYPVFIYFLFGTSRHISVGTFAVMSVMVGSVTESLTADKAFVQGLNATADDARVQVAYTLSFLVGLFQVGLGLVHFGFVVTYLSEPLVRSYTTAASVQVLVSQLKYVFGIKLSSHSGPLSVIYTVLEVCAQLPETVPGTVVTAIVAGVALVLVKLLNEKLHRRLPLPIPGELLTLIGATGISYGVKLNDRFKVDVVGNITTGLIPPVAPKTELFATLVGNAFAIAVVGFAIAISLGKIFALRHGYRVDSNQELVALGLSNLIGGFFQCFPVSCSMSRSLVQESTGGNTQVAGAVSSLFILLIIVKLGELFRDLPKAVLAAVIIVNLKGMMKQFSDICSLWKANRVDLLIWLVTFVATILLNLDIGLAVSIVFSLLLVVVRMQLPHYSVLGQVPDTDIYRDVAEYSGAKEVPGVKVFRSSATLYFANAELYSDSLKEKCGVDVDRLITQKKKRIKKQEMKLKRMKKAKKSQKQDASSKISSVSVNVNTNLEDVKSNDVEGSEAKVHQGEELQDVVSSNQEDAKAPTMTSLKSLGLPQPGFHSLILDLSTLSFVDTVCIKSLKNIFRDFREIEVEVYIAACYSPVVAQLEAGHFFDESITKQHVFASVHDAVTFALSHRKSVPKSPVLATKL
Experimental: A small-molecule screen was developed to identify PAT1 inhibitors utilizing transfected FRT cells expressing PAT1 (murine slc26a6) together with a halide-sensing cytoplasmic YFP (Figure 1A). Adherent cells in a 96-well format were subjected to an inward gradient of I^– to drive exchange of I^– for Cl^– and consequent quenching of the YFP fluorescence signal.
A collection of approximately 50,000 diverse, drug-like synthetic small molecules (ChemDiv) was screened at a concentration of 25 μM using a Beckman Coulter BioMek FX liquid handling platform with FLUOstar OMEGA plate readers (BMG Labtech). FRT-YFP-slc26a6 cells were plated in 96-well black-walled, clear-bottom plates (Corning Life Sciences) at a density of 20,000 cells/well and cultured for 48 hours until confluent. Cells were washed twice in PBS and incubated for 10 minutes prior to assay in 100 μl PBS containing test compounds. For assay of slc26a6 function, baseline cellular fluorescence was measured for 2 seconds, after which 100 μl NaI-substituted PBS (140 mM NaCl replaced by 140 mM NaI) was added by syringe pump to drive Cl^–/I^– exchange. The initial rate of Cl^–/I^– exchange was determined by single exponential regression of the fluorescence time course. All assay plates contained wells with negative (1% DMSO) and positive (500 μM niflumic acid) controls. For structure-activity relationship studies, analogs of active compounds were purchased from ChemDiv.

[2] = test system: TMEM16A; assay: Selectivity: I- influx in FRT cells coexpressing YFP and TMEM16A; type: cell-based; conditions: 25 μM
Experimental: PAT1inh-B01 selectivity was studied by testing its effects on related SLC26A family anion transporters and the Cl^– channel TMEM16A. These measurements used a similar Cl^–/I^– exchange protocol, but FRT cells separately expressed each of the SLC26A family members or TMEM16A. […] PAT1inh-B01 selectivity was also tested by short-circuit current (Isc) in well-differentiated human bronchial epithelial (HBE) cells, which have a complex ion transport mechanism that includes cystic fibrosis transmembrane conductance regulator (CFTR), epithelial Na^+ channel (ENaC), and Ca^+2-activated chloride channels (CaCCs) ([13]). […] Potential PAT1inh-B01 cytotoxicity was studied in FRT cells.
Figure 3 PAT1inh-B01 selectivity and cytotoxicity. […] Cl^–/I^– exchange or I^– influx measured in FRT cells coexpressing YFP and SLC26A isoforms or TMEM16A, with data shown for 25 μM PAT1inh-B01, DMSO vehicle control, and 500 μM niflumic acid (positive control for SLC26A transporters) or 10 μM TMinh-23 (positive control for TMEM16A). […] (C) (left) Short-circuit current (Isc) in well-differentiated HBE cells measured in the absence (top) and presence (bottom) of 25 μM PAT1inh-B01. […]
YFP-based cellular assays of slc26a3, slc26a4, SLC26A9, and TMEM16A function were performed as described previously ([7]). […] The activities of ENaC, CFTR, and CaCC were determined using well-differentiated HBE cells as described previously ([13]). […]

## Cc1c(Br)c(C(F)(F)F)nn1CC(=O)N1CCc2nc3cc(-c4ccccc4)[nH]n3c(=O)c2C1 [PAT1inh-B01]
[1]; 1 μM
  time to 50% inhibition of PAT1-mediated Cl-/I- exchange: approximately 3 minutes
[1]; FRT cells expressing PAT1 and YFP, read-out: IC50, inhibition of PAT1-mediated Cl-/I- exchange
  IC50: ~0.35 µM and 0.35 µM
[1]; FRT, 25 μM, primary screen
  inhibition at 25 µM: > 75%
[1]; data not shown
  reversibility of inhibition following washout: fully reversible
[2]
  inhibition of TMEM16A: did not significantly inhibit
